Test results reported in patent US9211310B2, “Use of a Chinese medicine composition in preparing medicaments for treating secondary prevention of myocardial infarction” (TASLY PHARMACEUTICAL GROUP CO., LTD, priority 2010, dated 2015).

System: patients after acute myocardial infarction
Assay: Life quality, Seattle Angina Questionnaire (SAQ), same clinical trial
Format: in vivo, human
Settings: FAS
Description: 3508 patients who were in accordance with the diagnostic standards of AMI for 28 days to 2 years and differentiated as Qi deficiency and blood stagnation syndrome by TCM were studied. 0.5 g Chinese medicine composition prepared by the method of EXAMPLE 1 (Coded as QSYQ) was administrated half an hour after meal, 3 times per day.
There were 19 questions in the Seattle angina questionnaire (SAQ), including 5 parts: physical limitation (PL), anginal stability (AS), anginal frequency (AF), treatment satisfaction (TS) and disease perception (DP). After being given necessary explanation by doctors, the questions were answered independently by patients.
They included the overall survival time, angina pectoris score, TCM symptom score and life quality score, where angina pectoris score, TCM symptom score and life quality score were evaluated at randomization, in 1st, 3rd, 6th, 9th, 12th month after treatment and 18th month after follow-up.
All evaluation results of SAQ were described during the period of observation, and Wilcoxon rank sum test was used for inter-group comparison.
The evaluation results in the SAQ were depicted in different observations, and inter-group comparison was tested by Wilcoxon Rank-sum test.

## CC(=O)Oc1ccccc1C(=O)O [Control group, aspirine]
9 months after treatment
  SAQ Question 1-1 Other reasons, percent of patients: (0.17%)
  SAQ Question 1-1 Severely limited, number of patients: 1
  SAQ Question 1-1 Severely limited, percent of patients: (0.06%)
  SAQ Question 1-1 Slightly limited, number of patients: 67
  SAQ Question 1-1 Slightly limited, percent of patients: (3.84%)
  SAQ Question 1-2 Mildly limited, number of patients: 29
  SAQ Question 1-2 Mildly limited, percent of patients: (1.66%)
  SAQ Question 1-2 Moderately limited, number of patients: 7
  SAQ Question 1-2 Moderately limited, percent of patients: (0.40%)
  SAQ Question 1-2 Not limited, number of patients: 1631
  SAQ Question 1-2 Not limited, percent of patients: (93.52%)
  SAQ Question 1-2 Other reasons, number of patients: 5
  SAQ Question 1-2 Other reasons, percent of patients: (0.29%)
  SAQ Question 1-2 Severely limited, number of patients: 0
  SAQ Question 1-2 Severely limited, percent of patients: (0.00%)
  SAQ Question 1-2 Slightly limited, number of patients: 72
  SAQ Question 1-2 Slightly limited, percent of patients: (4.13%)
  SAQ Question 1-6: Mildly limited, patients (%): (15.79%)
  SAQ Question 1-6: Moderately limited, patients (%): (11.08%)
  SAQ Question 1-6: Not limited, patients (%): (37.31%)
  SAQ Question 1-6: Other reasons, patients (%): (0.86%)
  SAQ Question 1-6: Severely limited, patients (%): (2.93%)
  SAQ Question 1-6: Slightly limited, patients (%): (32.03%)
  SAQ Question 1-7: Mildly limited, patients (%): (21.69%)
  SAQ Question 1-7: Moderately limited, patients (%): (11.86%)
  SAQ Question 1-7: Not limited, patients (%): (17.87%)
  SAQ Question 1-7: Other reasons, patients (%): (3.07%)
  SAQ Question 1-7: Severely limited, patients (%): (14.29%)
  SAQ Question 1-7: Slightly limited, patients (%): (31.23%)
  SAQ Question 1-8: Mildly limited, patients (%): (24.55%)
  SAQ Question 1-8: Moderately limited, patients (%): (15.03%)
  SAQ Question 1-8: Not limited, patients (%): (11.96%)
  SAQ Question 1-8: Other limited, patients (%): (3.60%)
  SAQ Question 1-8: Severely limited, patients (%): (17.93%)
  SAQ Question 1-8: Slightly limited, patients (%): (26.93%)
12 months after treatment
  8th question: Dissatisfied, patients (%): (0.29%)
  8th question: Highly satisfied, patients (%): (25.29%)
  8th question: Mostly dissatisfied, patients (%): (2.01%)
  8th question: Mostly satisfied, patients (%): (60.09%)
  8th question: Partly satisfied, patients (%): (12.33%)
  9th question: Few, patients (%): (39.74%)
  9th question: Mild, patients (%): (30.56%)
  9th question: Moderate, patients (%): (6.82%)
  9th question: Severe, patients (%): (0.97%)
  9th question: Uneffective, patients (%): (21.90%)
  10th question: Dissatisfied, patients (%): (19.50%)
  10th question: Highly satisfied, patients (%): (7.57%)
  10th question: Mostly dissatisfied, patients (%): (19.21%)
  10th question: Mostly satisfied, patients (%): (30.85%)
  10th question: Partly dissatisfied, patients (%): (22.88%)
  11th question: Continuously worried, patients (%): (3.15%)
  11th question: No worried, patients (%): (7.11%)
  11th question: Occasionally worried, patients (%): (40.60%)
  11th question: Often worried, patients (%): (9.23%)
  11th question: Seldom worried, patients (%): (39.91%)
  SAQ 4th question, 1-2 times per week: % of patients: (10.61%)
  SAQ 4th question, 1-2 times per week: number of patients: 185
  SAQ 4th question, 1-3 times per week: % of patients: (4.24%)
  SAQ 4th question, 1-3 times per week: number of patients: 74
  SAQ 4th question, <1 time per week: % of patients: (16.51%)
  SAQ 4th question, <1 time per week: number of patients: 288
  SAQ 4th question, Not used: % of patients: (64.56%)
  SAQ 4th question, Not used: number of patients: 1126
  SAQ 4th question, ≧3 times per week: % of patients: (3.96%)
  SAQ 4th question, ≧3 times per week: number of patients: 69
  SAQ 4th question, ≧4 times per day: % of patients: (0.11%)
  SAQ 4th question, ≧4 times per day: number of patients: 2
  SAQ 5th question, 1-2 times per week: % of patients: (32.00%)
  SAQ 5th question, 1-2 times per week: number of patients: 558
  SAQ 5th question, 1-3 times per day: % of patients: (6.14%)
  SAQ 5th question, 1-3 times per day: number of patients: 107
  SAQ 5th question, <1 time per week: % of patients: (29.93%)
  SAQ 5th question, <1 time per week: number of patients: 522
  SAQ 5th question, No onset: % of patients: (5.28%)
  SAQ 5th question, No onset: number of patients: 92
  SAQ 5th question, ≧3 times per week: % of patients: (25.86%)
  SAQ 5th question, ≧3 times per week: number of patients: 451
  SAQ 5th question, ≧4 times per day: % of patients: (0.80%)
  SAQ 5th question, ≧4 times per day: number of patients: 14
  SAQ 6th question, Dissatisfied: % of patients: (0.29%)
  SAQ 6th question, Dissatisfied: number of patients: 5
  SAQ 6th question, Highly satisfied: % of patients: (25.86%)
  SAQ 6th question, Highly satisfied: number of patients: 451
  SAQ 6th question, Mostly dissatisfied: % of patients: (1.55%)
  SAQ 6th question, Mostly dissatisfied: number of patients: 27
  SAQ 6th question, Mostly satisfied: % of patients: (60.61%)
  SAQ 6th question, Mostly satisfied: number of patients: 1057
  SAQ 6th question, Partly satisfied: % of patients: (11.70%)
  SAQ 6th question, Partly satisfied: number of patients: 204
  SAQ 7th question, Dissatisfied: % of patients: (0.11%)
  SAQ 7th question, Dissatisfied: number of patients: 2
  SAQ 7th question, Highly satisfied: % of patients: (29.56%)
  SAQ 7th question, Highly satisfied: number of patients: 515
  SAQ 7th question, Mostly dissatisfied: % of patients: (0.75%)
  SAQ 7th question, Mostly dissatisfied: number of patients: 13
  SAQ 7th question, Mostly satisfied: % of patients: (59.82%)
  SAQ 7th question, Mostly satisfied: number of patients: 1042
  SAQ 7th question, Partly satisfied: % of patients: (9.76%)
  SAQ 7th question, Partly satisfied: number of patients: 170
  SAQ Question 1-1 Mildly limited, number of patients: 15
  SAQ Question 1-1 Mildly limited, percent of patients: (0.86%)
  SAQ Question 1-1 Moderately limited, number of patients: 4
  SAQ Question 1-1 Moderately limited, percent of patients: (0.23%)
  SAQ Question 1-1 Not limited, number of patients: 1659
  SAQ Question 1-1 Not limited, percent of patients: (95.13%)
  SAQ Question 1-1 Other reasons, number of patients: 4
  SAQ Question 1-1 Other reasons, percent of patients: (0.23%)
  SAQ Question 1-1 Severely limited, number of patients: 1
  SAQ Question 1-1 Severely limited, percent of patients: (0.06%)
  SAQ Question 1-1 Slightly limited, number of patients: 61
  SAQ Question 1-1 Slightly limited, percent of patients: (3.50%)
  SAQ Question 1-2 Mildly limited, number of patients: 18
  SAQ Question 1-2 Mildly limited, percent of patients: (1.03%)
  SAQ Question 1-2 Moderately limited, number of patients: 6
  SAQ Question 1-2 Moderately limited, percent of patients: (0.34%)
  SAQ Question 1-2 Not limited, number of patients: 1647
  SAQ Question 1-2 Not limited, percent of patients: (94.44%)
  SAQ Question 1-2 Other reasons, number of patients: 6
  SAQ Question 1-2 Other reasons, percent of patients: (0.34%)
  SAQ Question 1-2 Severely limited, number of patients: 0
  SAQ Question 1-2 Severely limited, percent of patients: (0.00%)
  SAQ Question 1-2 Slightly limited, number of patients: 67
  SAQ Question 1-2 Slightly limited, percent of patients: (3.84%)
  SAQ Question 1-6: Mildly limited, patients (%): (14.93%)
  SAQ Question 1-6: Moderately limited, patients (%): (9.70%)
  SAQ Question 1-6: Not limited, patients (%): (40.47%)
  SAQ Question 1-6: Other reasons, patients (%): (0.86%)
  SAQ Question 1-6: Severely limited, patients (%): (2.58%)
  SAQ Question 1-6: Slightly limited, patients (%): (31.46%)
  SAQ Question 1-7: Mildly limited, patients (%): (20.46%)
  SAQ Question 1-7: Moderately limited, patients (%): (11.10%)
  SAQ Question 1-7: Not limited, patients (%): (20.46%)
  SAQ Question 1-7: Other limited, patients (%): (3.29%)
  SAQ Question 1-7: Severely limited, patients (%): (12.95%)
  SAQ Question 1-7: Slightly limited, patients (%): (31.73%)
  SAQ Question 1-8: Mildly limited, patients (%): (24.72%)
  SAQ Question 1-8: Moderately limited, patients (%): (13.35%)
  SAQ Question 1-8: Not limited, patients (%): (13.64%)
  SAQ Question 1-8: Other reasons, patients (%): (3.95%)
  SAQ Question 1-8: Severely limited, patients (%): (16.89%)
  SAQ Question 1-8: Slightly limited, patients (%): (27.45%)
Baseline
  8th question: Dissatisfied, patients (%): (0.92%)
  8th question: Highly satisfied, patients (%): (15.62%)
  8th question: Mostly dissatisfied, patients (%): (6.55%)
  8th question: Mostly satisfied, patients (%): (46.01%)
  8th question: Partly satisfied, patients (%): (30.90%)
  9th question: Few, patients (%): (21.02%)
  9th question: Mild, patients (%): (36.70%)
  9th question: Moderate, patients (%): (26.88%)
  9th question: Severe, patients (%): (3.62%)
  9th question: Uneffective, patients (%): (11.77%)
  10th question: Dissatisfied, patients (%): (25.90%)
  10th question: Highly satisfied, patients (%): (2.30%)
  10th question: Mostly dissatisfied, patients (%): (23.72%)
